The text below walks through data of US6316033A, “Compositions for treatment of antibiotic-resistant gram-positive bacterial infections and methods for using and preparing the same” (Marco Polo Technologies, priority 1999, dated 2001).

The subject of test [1] is wild-type Staphylococcus aureus (ATCC 29212). As to the kind of experiment: Disk sensitivity assay, wild-type S. aureus. The test is classed as cell-based. As to conditions: for zone of inhibition at 2000 µg/mL: Staphylococcus aureus, ATCC29212, 18 h. As to the method: The antimicrobial activities of the total organic solvent extract from A. euchroma, obtained as described in Example 1 above, and the red colored active fraction from A. euchroma, obtained as described in Example 2 above, were evaluated using a disk sensitivity assay.
(§1) More specifically, wild-type Staphylococcus aureus (ATCC 29212) was grown in Luria broth (L-broth) at 37° C. to exponential phase, diluted to 1.0×10^7 bacteria/ml, and mixed with minimal medium (M63, +salt and glucose) with 0.15% (w/v) soft agar. The mixture was poured over a minimal agar plate (minimal medium +0.7% (w/v) agar). Filter paper disks (6.0 mm in diameter) were then impregnated with 20 μl of total organic solvent extract from A. euchroma (containing 10 mg/ml of naphthaquinone compounds in dimethyl formamide (DMF)); 20 μl of total organic solvent extract from L. erythrorhizon (containing 10 mg/ml of naphthaquinone compounds in DMF); 20 μl of the red colored active fraction from A. euchroma isolated using TLC (10 mg/ml in DMF); 20 μl of the red colored active fraction from A. euchroma isolated using the silica gel column (10 mg/ml in DMF); or 20 μl of DMF as control, and placed on the surface of the agar plates. The plates were then incubated at 37° C. for 18 hrs.
(§2) The disk assay described above was carried out on wild-type S. aureus and antibiotic-resistant S. aureus using 20 μl of the red colored active fraction from A. euchroma isolated using TLC (10 mg/ml in DMF); 20 μl of the red colored active fraction from A. euchroma isolated using the silica gel column (10 mg/ml in DMF); or 20 μl of DMF as a control.
(§3) The anti-microbial activities of the 6 individual components were determined using the disk sensitivity assay described above.
(§4) More specifically, filter paper disks impregnated with 20 μl of each individual component (2.0 mg/ml) were placed on top of the agar plate. The plates were developed as described in Example 4 above.

Test [2] has as its system antibiotic-resistant Staphylococcus aureus (ATCC 27695). As to the kind of experiment: Disk sensitivity assay, antibiotic-resistant S. aureus. The format is cell-based. As to conditions: for zone of inhibition at 2000 µg/mL: Staphylococcus aureus, ATCC27695, 18 h. As to the method: as §1
The disk assay described above was carried out using antibiotic-resistant Staphylococcus aureus (ATCC 27695), and 20 μl of the total organic solvent extract from A. euchroma (containing 10 mg/ml of naphthaquinone compounds in DMF); 20 μl of the total organic solvent extract from L. erythrorhizon (containing 10 mg/ml of naphthaquinone compounds in DMF); or 20 μl of DMF as a control.
as §2, §3, §4

Test [3] concerns wild-type Staphylococcus aureus. As to the kind of experiment: Minimum inhibitory concentration in liquid culture, wild-type strain. The format is cell-based. Here is the method:
(§5) Next, the MIC for the total organic solvent extract from A. euchroma, obtained as described in Example 1 above, against wild-type Staphylococcus aureus and antibiotic-resistant Staphylococcus aureus were determined in liquid culture using L-broth with different amounts of total organic solvent extract, and compared to the MIC for common antibiotics.
(§6) More specifically, different concentrations of total organic solvent extract was added to 1.0 ml of L-broth, and inoculated with 50 μl of an overnight growth of bacteria (about 1.0×10^8 cells). The resulting samples were incubated overnight at 37° C. The MIC was then determined by measuring the minimal concentration of extract needed to inhibit the growth of the bacteria.
The MIC of the six individual components were determined using wild-type S. aureus and the liquid culture method as described above.

For test [4] the following is noted: literature (Tanaka et al; Kyogoku et al; Honda et al); cited from earlier work.
For test [5] the following is noted: literature (Tanaka et al, 1986); cited from earlier work.
The subject of test [6] is antibiotic-resistant Staphylococcus aureus clinical isolates. As to the kind of experiment: Antibiotic resistance (MIC) of S. aureus clinical isolates. The format is cell-based.
For test [7], the system named is antibiotic-resistant Staphylococcus aureus. The test can be described thus: Minimum inhibitory concentration in liquid culture, antibiotic-resistant strain. As to conditions: read-out: Minimum Inhibitory Concentration (MIC). The format is cell-based. As to the method: as §5, §6
The mark [8] stands for this setting: wild-type S. aureus, liquid culture, Table 10.
Where [9] appears, read: Wild-Type Strain, individual components, 20 μl of 2.0 mg/ml, Table 9.
The mark [10] stands for this setting: Antibiotic-resistant Strain, individual components, 20 μl of 2.0 mg/ml, Table 9.
The mark [11] stands for this setting: read-out: Antibiotic Resistance (MIC), Strain 3-44.
The mark [12] stands for this setting: Staphylococcus aureus, read-out: Minimum Inhibitory Concentration (MIC).
Where [13] appears, read: Strain 3-16, read-out: Antibiotic Resistance (MIC).
The mark [14] stands for this setting: Strain 3-20, read-out: Antibiotic Resistance (MIC).
Setting [15] is: Strain 5-37, read-out: Antibiotic Resistance (MIC).
Where [16] appears, read: Strain 5-38, read-out: Antibiotic Resistance (MIC).
Setting [17] is: Strain 5-39, read-out: Antibiotic Resistance (MIC).
Where [18] appears, read: Strain 5-47, read-out: Antibiotic Resistance (MIC).
[19] abbreviates: Wild-Type Strain, individual components, 20 μl of 2.0 mg/ml, Table 9, read-out: Zone of inhibition.
Setting [20] is: Antibiotic-resistant Strain, individual components, 20 μl of 2.0 mg/ml, Table 9, read-out: Zone of inhibition.
[21] abbreviates: Staphylococcus aureus, wild-type S. aureus, liquid culture, Table 10, read-out: MIC.

Converted amounts (≈) assume the structure as drawn. Like-named read-outs stand apart in the source and are kept apart here. A value given as a limit tells only on which side of the number the result lay.

The term zone of inhibition denotes the extent of the growth-free halo in a diffusion test. For `CC(C)=CC[C@@H](O)C1=CC(=O)c2c(O)ccc(O)c2C1=O` (single isomer, unassigned) [Peak I, Shikonin], the zone of inhibition at 2000 µg/mL in test [1] and in test [2] was 18 mm in each case. In addition, the “appearance of zone of inhibition” value in test [1] (wild-type S. aureus, individual components, 2.0 mg/ml) is given as “the inhibition was not complete, as shown by an opaque, rather than a clear zone”; in test [2] (antibiotic-resistant S. aureus, individual components, 2.0 mg/ml) it was “the inhibition was not complete, as shown by an opaque, rather than a clear zone”. This molecule displayed an MIC in test [3] (Staphylococcus aureus) of 4 to 5 µg/mL (≈ 13.9 to 17.3 µM). The antimicrobial activity entry in test [4] is given as “antimicrobial activity”. The anti-inflammatory activity result in test [5] is given as “anti-inflammatory activity”.

Regarding `CC(=O)O[C@H](CC=C(C)C)C1=CC(=O)c2c(O)ccc(O)c2C1=O` (single isomer, unassigned) [Peak II, Acetyl shikonin], the zone of inhibition at 2000 µg/mL turned out to be 10 mm in test [1] and 17 mm in test [2]. Moreover, the MIC in test [3] (Staphylococcus aureus) lay within 0.5 to 1 µg/mL (≈ 1.51 to 3.03 µM). In addition, in test [3] (setting [8]), the “activity ranking among the individual components (MIC)” value is “the most active”.

With `CC(C)=CC[C@@H](OC(=O)CC(C)=C(C)C)C1=CC(=O)c2c(O)ccc(O)c2C1=O` (single isomer, unassigned; peak iii) [Peak III, Teracryl shikonin], the values for the Zone of inhibition in test [1] (setting [9]) and in test [2] (setting [10]) were 7.5 mm and 7.0 mm, respectively. The MIC in test [3] (setting [8]) lay in the range of 4.0 to 6.0 µg/mL.

`CC(C)=CC[C@@H](OC(=O)CC(C)(C)O)C1=CC(=O)c2c(O)ccc(O)c2C1=O` (single isomer, unassigned; peak iv) [Peak IV, Hydroxyisovaleryl shikonin]: the Zone of inhibition in test [1] (setting [9]) and in test [2] (setting [10]) was 7.0 mm in each case. This molecule returned an MIC in test [3] (setting [8]) of 4.0 to 6.0 µg/mL.

For the molecule `CC[C@H]1OC(=O)[C@H](C)[C@@H](O[C@H]2C[C@@](C)(OC)[C@@H](O)[C@H](C)O2)[C@H](C)[C@@H](O[C@@H]2O[C@H](C)C[C@H](N(C)C)[C@H]2O)[C@](C)(O)C[C@@H](C)C(=O)[C@H](C)[C@@H](O)[C@]1(C)O` [Erythromycin], the MIC in test [6] (setting [11]) was > 32 µg/mL; in test [6] (read-out: Antibiotic Resistance (MIC), Strain 5-75), > 32 µg/mL; in test [6] (read-out: Antibiotic Resistance (MIC), Strain 5-76), > 32 µg/mL; in test [6] (read-out: Antibiotic Resistance (MIC), Strain 5-77), > 32 µg/mL; in test [6] (read-out: Antibiotic Resistance (MIC), Strain 5-78), 4 µg/mL (≈ 5.45 µM); in test [3] (setting [12]), < 1 µg/mL. In addition, in test [7], the MIC was > 20 µg/mL.

In the case of `COc1cccc(OC)c1C(=O)N[C@@H]1C(=O)N2[C@@H]1SC(C)(C)[C@@H]2C(=O)O` [Methicillin], the MIC is 32 µg/mL (≈ 84.1 µM) in test [6] (setting [13]); 128 µg/mL (≈ 336 µM) in test [6] (setting [14]); > 128 µg/mL in test [6] (setting [15]); 32 µg/mL (≈ 84.1 µM) in test [6] (setting [16]); 128 µg/mL (≈ 336 µM) in test [6] (setting [17]); > 128 µg/mL in test [6] (setting [18]).

As for `CO[C@@H]1[C@@H](OC(N)=O)[C@@H](O)[C@H](Oc2ccc3c(O)c(NC(=O)c4ccc(O)c(CC=C(C)C)c4)c(=O)oc3c2C)OC1(C)C` [Novobiocin], the MIC in test [3] (setting [12]) was < 2 µg/mL; in test [7], > 20 µg/mL.

For `CC(C)=CC[C@@H](OC(=O)C(C)C)C1=CC(=O)c2c(O)ccc(O)c2C1=O` [Peak V, Isobutyl shikonin], the zone of inhibition at 2000 µg/mL in test [1] (setting [19]) and in test [2] (setting [20]) was 7 mm each time. For the same molecule, the MIC in test [3] (setting [21]) lay in the range of 2 to 4 µg/mL (≈ 5.58 to 11.2 µM).

Turning to `CC(C)=CCC(OC(=O)C=C(C)C)C1=CC(=O)c2c(O)ccc(O)c2C1=O` (stereo not drawn) [Peak VI, β, β-dimethylacryl shikonin], the zone of inhibition at 2000 µg/mL in test [1] (setting [19]) and in test [2] (setting [20]) was 7 mm throughout. For the same molecule, the MIC in test [3] (setting [21]) was < 2 µg/mL. Further, in test [3] (setting [8]), the “activity ranking among the individual components (MIC)” value is given as “the most active”.

With `CC1(C)S[C@@H]2[C@H](NC(=O)Cc3ccccc3)C(=O)N2[C@H]1C(=O)O` [Penicillin G], the MIC in test [6] (read-out: Antibiotic Resistance (MIC), Strain 6515) is > 20 µg/mL.

On to `CCN1CCN(C(=O)N[C@@H](C(=O)N[C@@H]2C(=O)N3[C@@H]2SC(C)(C)[C@@H]3C(=O)O)c2ccccc2)C(=O)C1=O` [Piperacillin], for which the MIC in test [6] (setting [13]) is 32 µg/mL (≈ 61.8 µM); in test [6] (setting [14]), 128 µg/mL (≈ 247 µM); in test [6] (Strain 4-15, read-out: Antibiotic Resistance (MIC)) it was 32 µg/mL (≈ 61.8 µM); in test [6] (Strain 4-44, read-out: Antibiotic Resistance (MIC)), > 128 µg/mL; in test [6] (Strain 4-50, read-out: Antibiotic Resistance (MIC)), 32 µg/mL (≈ 61.8 µM); in test [6] (setting [15]), > 128 µg/mL. Further, the MIC in test [6] (setting [16]) was 32 µg/mL (≈ 61.8 µM); in test [6] (setting [17]) it was 128 µg/mL (≈ 247 µM); in test [6] (setting [18]), > 128 µg/mL.

`CN(C)C1C(=O)C(C(N)=O)=C(O)C2(O)C(=O)C3=C(O)c4c(O)cccc4C(C)(O)C3CC12` (stereo not shown) [Tetracycline]: the MIC in test [6] (setting [11]) was > 32 µg/mL; in test [6] (read-out: Antibiotic Resistance (MIC), Strain 1206) it was > 32 µg/mL; in test [3] (setting [12]) it was 1 to 2 µg/mL (≈ 2.25 to 4.5 µM); in test [7], > 20 µg/mL.

As to `CC(C)=CCCC1=CC(=O)c2c(O)ccc(O)c2C1=O` [deoxyshikonin], the antimicrobial activity result in test [4] was “antimicrobial activity”. Besides, the anti-inflammatory activity result in test [5] is recorded as “anti-inflammatory activity”.
